Laboratory results as given in patent US8575142B2, “Agent for improving insulin resistance” (Morinaga Milk Industry Co., Ltd., priority 2005, dated 2013).
“And” between values parts separate entries of the source, which are not always exact repeats. Equal values may be shown once.

Assays:
Type in all cases: in vivo
[1] = test system: AKR mice to which insulin resistance was induced by feeding with a high-fat diet; assay: Level of free fatty acid in serum of AKR mice with high-fat-diet-induced insulin resistance; details: 60th day of oral administration; for Free fatty acid: mouse serum, under fasting, 25 μg/kg of body weight once a day; for Test sample/negative sample (free fatty acid level in serum): relative to negative sample group, 25 μg/kg once a day
Protocol: Compound 3 (4-methylcholest-7-en-3-ol), Compound 4 (4-methylergost-7-en-3-ol), and Compound 5 (4-methylstigmast-7-en-3-ol) which were produced in Preparation Example 1 were each dissolved in DMSO and adjusted with distilled water to each have a concentration of 1 μg/ml, to thereby prepare Test Samples 1, 2, and 3. In this case, DMSO was adjusted to have a final concentration of 0.2%.
After that, the mice were divided into groups of 8 mice each. Each of the groups of mice were orally administered with 1 ml per 40 g of body weight (25 μg/kg of body weight) of a test sample or the negative sample once a day using a sonde.

TNF-α = TNF-α production by epididymal fat tissues collected from treated insulin-resistant AKR mice (ELISA); details: for TNF-α: culture supernatant of epididymal fat tissue after 1 hour culture, 60th day of oral administration, 25 μg/kg once a day; for Effect on production of TNF-α as compared with negative sample group: fat tissues, 60th day, 25 μg/kg oral once a day, Tukey-Kramer's test
Protocol: (§1) The present example was performed by using AKR mice to which insulin resistance was induced by feeding with a high-fat diet, to evaluate the effects of the agent for amelioration insulin resistance of the present invention on production of TNF-α and MCP-1 from respective cells of fat tissues.
(§2) In Example 2, the same test samples and negative sample as those prepared in Example 1 were used.
(§3) After that, the mice were divided into groups of 8 mice each. Each of the groups of mice was orally administered with 1 ml per 40 g of body weight (25 μg/kg of body weight) of a test sample or the negative sample once a day using a sonde. […] After 1 hour of the culture, culture supernatants were collected, and concentrations of TNF-α and MCP-1 in the culture supernatants were measured by ELISA (Biosource).

MCP-1 = MCP-1 production by epididymal fat tissues collected from treated insulin-resistant AKR mice (ELISA); details: for MCP-1: culture supernatant of epididymal fat tissue after 1 hour culture, 60th day of oral administration, 25 μg/kg once a day; for Effect on production of MCP-1 as compared with negative sample group: fat tissues, 60th day, 25 μg/kg oral once a day, Tukey-Kramer's test
Protocol: as §1, §2, §3

[2] = test system: AKR mice to which insulin resistance was induced by feeding with a high-fat diet; assay: Insulin tolerance test in AKR mice with high-fat-diet-induced insulin resistance; details: 45th day of oral administration, 25 μg/kg once a day; 4 hours fasted; 0.75 U/kg human insulin intraperitoneally; up to 60 minutes; compared with negative sample
Protocol: The present example was performed by using AKR mice to which insulin resistance was induced by feeding with a high-fat diet, to confirm an enhancing effect of the agent for improving insulin resistance of the present invention on insulin sensitivity by performing an insulin tolerance test.
In Example 3, the same test samples and negative sample as those prepared in Examples 1 and 2 were used.
After that, the mice were divided into groups of 8 mice each. Each of the groups of mice was orally administered with 1 ml per 40 g of body weight (25 μg/kg of body weight) of a test sample or the negative sample once a day using a sonde. […] The insulin tolerance test in the present example was performed in such a manner that: the mice were fasted for 4 hours, and were then intraperitoneally administered with 0.75 U/kg of body weight of a human insulin (Eli Lily and Company); and changes with time in blood glucose level were measured from the initiation of the administration of insulin to after 60 minutes later.

Compound	Free fatty acid [1]	Test sample/negative sample (free fatty acid level in serum) [1]	TNF-α (TNF-α)	Effect on production of TNF-α as compared with negative sample group (TNF-α)	MCP-1 (MCP-1)	Effect on production of MCP-1 as compared with negative sample group (MCP-1)	Change in blood glucose level after administration of insulin (FIG. 1) [2]
CC(C)CCCC(C)C1CCC2C3=CCC4C(C)C(O)CCC4(C)C3CCC21C (stereo not drawn) [Test Sample 1, 4-methylcholest-7-en-3-ol]	1.35 ± 0.23 mEp/l	86.4% and 84.5%	33.73 ± 1.68 pg/mL	significant inhibitory effects	100.86 ± 8.31 pg/mL	significant inhibitory effects	rapid reduction in blood glucose levels
CC(C)C(C)CCC(C)C1CCC2C3=CCC4C(C)C(O)CCC4(C)C3CCC21C (stereo not drawn) [Test Sample 2, 4-methylergost-7-en-3-ol]	1.21 ± 0.22 mEp/l	81.6%	32.71 ± 1.70 pg/mL	significant inhibitory effects	95.56 ± 10.56 pg/mL	significant inhibitory effects	rapid reduction in blood glucose levels
CCC(CCC(C)C1CCC2C3=CCC4C(C)C(O)CCC4(C)C3CCC21C)C(C)C (stereo not drawn) [Test Sample 3, 4-methylstigmast-7-en-3-ol]	0.90 ± 0.15 mEp/l	60.8%	29.80 ± 3.82 pg/mL	significant inhibitory effects	87.80 ± 9.24 pg/mL	significant inhibitory effects	rapid reduction in blood glucose levels
